Data as given in ChEMBL document CHEMBL1123770, “Systematic synthesis and biological evaluation of alpha- and beta-D-lyxofuranosyl nucleosides of the five naturally occurring nucleic acid bases” (1987).
≈ marks a conversion by molar mass, not a printed value.

Experiments:
HeLa [1] = experiment: Minimum inhibitory concentration (MIC) required to reduce virus-induced cytopathogenicity by 50% against Coxsackie virus B4 in HeLa cells; type: functional; conditions: Homo sapiens
HeLa [2] = experiment: Minimum cytotoxic concentration (MCC) required to cause a microscopically detectable alteration of host cell morphology, when incubated with HeLa cells; type: functional; conditions: Homo sapiens
[3] = Minimum cytotoxic concentration (MCC) required to cause a microscopically detectable alteration of host cell morphology, when incubated with PRK cells; type: functional; conditions: Oryctolagus cuniculus
Vero [4] = experiment: Minimum cytotoxic concentration (MCC) required to cause a microscopically detectable alteration of host cell morphology, when incubated with Vero B cells; type: functional; conditions: Chlorocebus sabaeus
Vero [5] = experiment: Minimum inhibitory concentration (MIC) required to reduce virus-induced cytopathogenicity by 50% against Coxsackie virus B4 in African green monkey kidney (Vero B)cells; type: functional, Chlorocebus sabaeus
WI-38 [6] = experiment: Minimum cytotoxic concentration (MCC) required to cause a microscopically detectable alteration of host cell morphology, when incubated with WI-38 cells; type: functional; conditions: Homo sapiens
WI-38 [7] = experiment: Minimum inhibitory concentration (MIC) required to reduce virus-induced cytopathogenicity by 50% against Rhinovirus 9 in human diploid (WI-38)cells; type: functional
WI-38 [8] = experiment: Minimum inhibitory concentration (MIC) required to reduce virus-induced cytopathogenicity by 50% against Rhinovirus-1A in human diploid (WI-38)cells; type: functional
Vero [9] = experiment: Minimum inhibitory concentration (MIC) required to reduce virus-induced cytopathogenicity by 50% against Parainfluenza virus-3 in African green monkey kidney (Vero B)cells; type: functional, Chlorocebus sabaeus
Vero [10] = experiment: Minimum inhibitory concentration (MIC) required to reduce virus-induced cytopathogenicity by 50% against Reo virus-1 in African green monkey kidney (Vero B)cells; type: functional, Chlorocebus sabaeus
Vero [11] = experiment: Minimum inhibitory concentration (MIC) required to reduce virus-induced cytopathogenicity by 50% against forest virus in African green monkey kidney (Vero B)cells; type: functional; conditions: Chlorocebus sabaeus
Vero [12] = experiment: Minimum inhibitory concentration (MIC) required to reduce virus-induced cytopathogenicity by 50% against Sindbis virus in African green monkey kidney (Vero B)cells; type: functional; conditions: Chlorocebus sabaeus
Oryctolagus cuniculus [13] = species on record: Oryctolagus cuniculus; experiment: Minimum inhibitory concentration (MIC) required to reduce virus-induced cytopathogenicity by 50% against G strain of Herpes simplex virus-2 in primary rabbit kidney cells; type: functional
Oryctolagus cuniculus [14] = species on record: Oryctolagus cuniculus; experiment: Minimum inhibitory concentration (MIC) required to reduce virus-induced cytopathogenicity by 50% against KOS strain of Herpes simplex virus-1 in primary rabbit kidney cells; type: functional
Oryctolagus cuniculus [15] = species on record: Oryctolagus cuniculus; experiment: Minimum inhibitory concentration (MIC) required to reduce virus-induced cytopathogenicity by 50% against Vaccinia virus in primary rabbit kidney cells; type: functional
HeLa [16] = experiment: Minimum inhibitory concentration (MIC) required to reduce virus-induced cytopathogenicity by 50% against Vesicular stomatitis virus in HeLa cells; type: functional; conditions: Homo sapiens
HeLa [17] = experiment: Minimum inhibitory concentration (MIC) required to reduce virus-induced cytopathogenicity by 50% against Polio virus-1 in HeLa cells; type: functional; conditions: Homo sapiens
Oryctolagus cuniculus [18] = species on record: Oryctolagus cuniculus; experiment: Minimum inhibitory concentration (MIC) required to reduce virus-induced cytopathogenicity by 50% against Vesicular stomatitis virus in primary rabbit kidney cells; type: functional
[19] = Chlorocebus sabaeus, read-out: MIC
[20] = Oryctolagus cuniculus, read-out: MIC

## Nc1ccn([C@@H]2O[C@H](CO)[C@H](O)[C@@H]2O)c(=O)n1
HeLa [1]
  MIC: > 200 µg/mL
HeLa [2]
  MCC: > 200 µg/mL
[3]
  MCC: > 200 µg/mL
Vero [4]
  MCC: > 200 µg/mL
Vero [5]; [19]
  MIC: > 200 µg/mL
WI-38 [6]
  MCC: > 200 µg/mL
WI-38 [7]; Homo sapiens, read-out: MIC
  MIC: > 200 µg/mL
WI-38 [8]
  MIC: > 200 µg/mL
Vero [9]; [19]
  MIC: > 100 µg/mL
Vero [10]; [19]
  MIC: > 200 µg/mL
Vero [11]
  MIC: > 200 µg/mL
Vero [12]
  MIC: > 100 µg/mL
Oryctolagus cuniculus [13]; [20]
  MIC: > 200 µg/mL
Oryctolagus cuniculus [14]
  MIC: > 200 µg/mL
Oryctolagus cuniculus [15]; [20]
  MIC: 70 µg/mL (≈ 288 µM)

## Nc1ncnc2c1ncn2[C@@H]1O[C@H](CO)[C@H](O)[C@@H]1O (stereo in doubt; 22d)
Vero [5]
  MIC: 100 µg/mL (≈ 374 µM)
WI-38 [7]
  MIC: >400 µg/mL
WI-38 [8]
  MIC: > 400 µg/mL
Vero [9]
  MIC: >200 µg/mL
Vero [10]
  MIC: >200 µg/mL
Oryctolagus cuniculus [13]
  MIC: >400 µg/mL
Oryctolagus cuniculus [15]
  MIC: 200 µg/mL (≈ 748 µM)

## O=c1ccn([C@@H]2O[C@H](CO)[C@H](O)[C@@H]2O)c(=O)[nH]1
HeLa [1]
  MIC: > 400 µg/mL
HeLa [2]
  MCC: > 400 µg/mL
[3]
  MCC: > 400 µg/mL
Vero [4]
  MCC: > 400 µg/mL
Vero [5]; [19]
  MIC: > 100 µg/mL
WI-38 [6]
  MCC: > 400 µg/mL
WI-38 [7]; Homo sapiens, read-out: MIC
  MIC: 100 µg/mL (≈ 409 µM)
WI-38 [8]
  MIC: > 400 µg/mL
Vero [9]; [19]
  MIC: > 400 µg/mL
Vero [10]; [19]
  MIC: > 400 µg/mL
Vero [11]
  MIC: > 400 µg/mL
Vero [12]
  MIC: > 400 µg/mL
Oryctolagus cuniculus [13]; [20]
  MIC: > 400 µg/mL
Oryctolagus cuniculus [14]
  MIC: > 400 µg/mL

## O=c1ccn([C@H]2O[C@H](CO)[C@H](O)[C@@H]2O)c(=O)[nH]1
HeLa [1]
  MIC: > 400 µg/mL
HeLa [2]
  MCC: > 400 µg/mL
[3]
  MCC: > 400 µg/mL
Vero [4]
  MCC: > 400 µg/mL
Vero [5]; [19]
  MIC: > 400 µg/mL
WI-38 [6]
  MCC: > 400 µg/mL
WI-38 [7]; Homo sapiens, read-out: MIC
  MIC: > 400 µg/mL
WI-38 [8]
  MIC: > 400 µg/mL
Vero [9]; [19]
  MIC: > 400 µg/mL
Vero [10]; [19]
  MIC: > 200 µg/mL
Vero [11]
  MIC: > 400 µg/mL
Vero [12]
  MIC: > 400 µg/mL
Oryctolagus cuniculus [13]; [20]
  MIC: > 400 µg/mL
Oryctolagus cuniculus [14]
  MIC: > 400 µg/mL

## Nc1ccn([C@H]2O[C@H](CO)[C@H](O)[C@@H]2O)c(=O)n1
HeLa [1]
  MIC: > 400 µg/mL
HeLa [2]
  MCC: > 400 µg/mL
[3]
  MCC: > 400 µg/mL
Vero [4]
  MCC: > 400 µg/mL
Vero [5]; [19]
  MIC: > 400 µg/mL
WI-38 [6]
  MCC: > 400 µg/mL
WI-38 [7]; Homo sapiens, read-out: MIC
  MIC: > 400 µg/mL
WI-38 [8]
  MIC: > 400 µg/mL
Vero [9]; [19]
  MIC: > 400 µg/mL
Vero [10]; [19]
  MIC: > 400 µg/mL
Vero [11]
  MIC: > 400 µg/mL
Vero [12]
  MIC: > 400 µg/mL
Oryctolagus cuniculus [13]; [20]
  MIC: > 400 µg/mL
Oryctolagus cuniculus [14]
  MIC: > 400 µg/mL

## Nc1nc2c(ncn2[C@@H]2O[C@H](CO)[C@H](O)[C@@H]2O)c(=O)[nH]1
HeLa [1]
  MIC: > 400 µg/mL
HeLa [2]
  MCC: > 400 µg/mL
[3]
  MCC: > 400 µg/mL
Vero [4]
  MCC: > 400 µg/mL
Vero [5]; [19]
  MIC: > 400 µg/mL
WI-38 [6]
  MCC: > 400 µg/mL
WI-38 [7]; Homo sapiens, read-out: MIC
  MIC: > 400 µg/mL
WI-38 [8]
  MIC: > 400 µg/mL
Vero [9]; [19]
  MIC: > 400 µg/mL
Vero [10]; [19]
  MIC: > 400 µg/mL
Vero [11]
  MIC: > 400 µg/mL
Vero [12]
  MIC: > 400 µg/mL
Oryctolagus cuniculus [13]; [20]
  MIC: 400 µg/mL (≈ 1410 µM)
Oryctolagus cuniculus [14]
  MIC: > 400 µg/mL
Oryctolagus cuniculus [15]; [20]
  MIC: 100 µg/mL (≈ 353 µM)

## Cc1cn([C@H]2O[C@H](CO)[C@H](O)[C@@H]2O)c(=O)[nH]c1=O
HeLa [1]
  MIC: > 400 µg/mL
HeLa [2]
  MCC: > 400 µg/mL
[3]
  MCC: > 400 µg/mL
Vero [4]
  MCC: > 400 µg/mL
Vero [5]; [19]
  MIC: > 400 µg/mL
WI-38 [6]
  MCC: > 400 µg/mL
WI-38 [7]; Homo sapiens, read-out: MIC
  MIC: > 400 µg/mL
WI-38 [8]
  MIC: > 400 µg/mL
Vero [9]; [19]
  MIC: > 400 µg/mL
Vero [10]; [19]
  MIC: > 200 µg/mL
Vero [11]
  MIC: > 400 µg/mL
Vero [12]
  MIC: > 400 µg/mL
Oryctolagus cuniculus [13]; [20]
  MIC: > 400 µg/mL
Oryctolagus cuniculus [14]
  MIC: > 400 µg/mL

## Nc1nc2c(ncn2[C@H]2O[C@H](CO)[C@H](O)[C@@H]2O)c(=O)[nH]1
HeLa [1]
  MIC: > 400 µg/mL
HeLa [2]
  MCC: > 400 µg/mL
[3]
  MCC: > 400 µg/mL
Vero [4]
  MCC: > 400 µg/mL
Vero [5]; [19]
  MIC: > 400 µg/mL
WI-38 [6]
  MCC: > 400 µg/mL
WI-38 [7]; Homo sapiens, read-out: MIC
  MIC: 200 µg/mL (≈ 706 µM)
WI-38 [8]
  MIC: > 400 µg/mL
Vero [9]; [19]
  MIC: > 400 µg/mL
Vero [10]; [19]
  MIC: > 400 µg/mL
Vero [11]
  MIC: > 400 µg/mL
Vero [12]
  MIC: > 400 µg/mL
Oryctolagus cuniculus [13]; [20]
  MIC: > 400 µg/mL
Oryctolagus cuniculus [14]
  MIC: > 400 µg/mL

## NC(=O)c1ncn([C@@H]2O[C@H](CO)[C@@H](O)[C@H]2O)n1 [RIBAVIRIN]
HeLa [16]
  MIC: 20 µg/mL (≈ 81.9 µM)
HeLa [1]
  MIC: 70 µg/mL (≈ 287 µM)
HeLa [17]
  MIC: 70 µg/mL (≈ 287 µM)
HeLa [2]
  MCC: > 200 µg/mL
[3]
  MCC: > 400 µg/mL
Vero [4]
  MCC: > 400 µg/mL
Vero [5]; [19]
  MIC: 10 µg/mL (≈ 40.9 µM)
WI-38 [6]
  MCC: > 400 µg/mL
WI-38 [7]; Homo sapiens, read-out: MIC
  MIC: > 400 µg/mL
WI-38 [8]
  MIC: 150 µg/mL (≈ 614 µM)
Vero [9]; [19]
  MIC: 70 µg/mL (≈ 287 µM)
Vero [10]; [19]
  MIC: 70 µg/mL (≈ 287 µM)
Vero [11]
  MIC: > 400 µg/mL
Vero [12]
  MIC: 70 µg/mL (≈ 287 µM)
Oryctolagus cuniculus [13]; [20]
  MIC: > 400 µg/mL
Oryctolagus cuniculus [14]
  MIC: > 400 µg/mL
Oryctolagus cuniculus [15]; [20]
  MIC: 20 µg/mL (≈ 81.9 µM)
Oryctolagus cuniculus [18]
  MIC: 150 µg/mL (≈ 614 µM)

## Nc1ncnc2c1ccn2[C@@H]1O[C@H](CO)[C@@H](O)[C@H]1O [TUBERCIDIN]
HeLa [16]
  MIC: 0.07 µg/mL (≈ 0.263 µM)
HeLa [1]
  MIC: 0.2 µg/mL (≈ 0.751 µM)
HeLa [17]
  MIC: 0.07 µg/mL (≈ 0.263 µM)
HeLa [2]
  MCC: > 1 µg/mL
[3]
  MCC: 1 µg/mL
Vero [4]
  MCC: > 0.4 µg/mL
Vero [5]; [19]
  MIC: 0.2 µg/mL (≈ 0.751 µM)
WI-38 [6]
  MCC: > 4 µg/mL
WI-38 [7]; Homo sapiens, read-out: MIC
  MIC: > 4 µg/mL
WI-38 [8]
  MIC: 0.02 µg/mL (≈ 0.0751 µM)
Vero [9]; [19]
  MIC: > 0.1 µg/mL
Vero [10]; [19]
  MIC: > 0.1 µg/mL
Vero [11]
  MIC: > 0.4 µg/mL
Vero [12]
  MIC: 0.2 µg/mL (≈ 0.751 µM)
Oryctolagus cuniculus [13]; [20]
  MIC: > 0.4 µg/mL
Oryctolagus cuniculus [14]
  MIC: > 0.4 µg/mL
Oryctolagus cuniculus [15]; [20]
  MIC: 0.2 µg/mL (≈ 0.751 µM)
Oryctolagus cuniculus [18]
  MIC: 0.07 µg/mL (≈ 0.263 µM)
